Patent publication US20060069132A1, “Azolecarboxamide herbicides” (priority 2004, published 2006)

Legend:
rice [1] = assay: Test B pre-/postemergence herbicide test; format: in vivo, Oryza sativa; conditions: preemergence
Method in brief: (§1)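 Greenhouse pot assay with simultaneous preemergence (treated seed) and postemergence (2–18 cm seedlings) applications of surfactant-containing, non-phytotoxic solvent formulations. Response scored visually 13–15 days later on a 0–100 scale, 100 meaning complete control.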

large crabgrass [2] = assay: Test A pre-/postemergence herbicide test; format: in vivo, Digitaria sanguinalis
Method in brief: (§2)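 Seeds sown in sandy loam received a preemergence directed soil spray of compound in non-phytotoxic solvent with surfactant; postemergence plants (2–10 cm, one- to two-leaf stage) were sprayed to runoff at the same time. After ~10 days in greenhouse, injury was rated visually versus untreated controls (0 = no effect, 100 = complete control).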

pigweed = assay: Test B pre-/postemergence herbicide test; format: in vivo, Amaranthus retroflexus
Method in brief: (§3)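 Plants compared with untreated controls 13–15 days post-treatment and given a visual 0–100 injury score. Applications: preemergence to seeds; postemergence at 1- to 4-leaf (2–18 cm); paddy species flooded, 2-leaf stage. Vehicle non-phytotoxic, surfactant included.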

wild oat = assay: Test B postemergence herbicide test; format: in vivo, Avena fatua; conditions: scale 0 (no effect) to 100 (complete control)
Method in brief: (§4)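 Scale 0–100: zero equals no visible effect, 100 complete control, judged by eye relative to controls. Timing: 13 to 15 days in greenhouse post-treatment. Growth stage at spraying: two leaves (paddy) or one to four leaves, 2–18 cm (postemergence).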

corn = assay: Test B pre-/postemergence herbicide test; format: in vivo, Zea mays
Method in brief: as §3

barnyardgrass [3] = assay: Test A pre-/postemergence herbicide test; format: in vivo, Echinochloa crus-galli
Method in brief: as §2

morningglory [4] = assay: Test B pre-/postemergence herbicide test; format: in vivo, Ipomoea coccinea
Method in brief: as §1

blackgrass = assay: Test B postemergence herbicide test; format: in vivo, Alopecurus myosuroides; conditions: scale 0 (no effect) to 100 (complete control)
Method in brief: (§5)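 Greenhouse test; postemergence application to plants at 1–4 leaves (2–18 cm); paddy species at 2 leaves; evaluated visually vs controls at 13–15 days; scale 0–100 (100 = complete control).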

redroot pigweed = assay: Test A pre-/postemergence herbicide test; format: in vivo, Amaranthus retroflexus
Method in brief: as §2

velvetleaf [5] = assay: Test B pre-/postemergence herbicide test; format: in vivo, Abutilon theophrasti
Method in brief: as §3

rice [6] = assay: Test B flooded paddy test; format: in vivo, Oryza sativa; conditions: 1000 g ai/ha, visual rating, scale 0 to 100 (0 no effect, 100 complete control), 13 to 15 days
Method in brief: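 Formulated test chemicals went onto postemergence plants measuring 2 to 18 cm, at one to four leaves. For the paddy assay, species had reached two leaves. Scoring took place 13–15 days later by eye, relative to untreated plants, using 0 for no effect up to 100 for full control.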

giant foxtail [7] = assay: Test A pre-/postemergence herbicide test; format: in vivo, Setaria faberi
Method in brief: as §2

giant foxtail [8] = assay: Test B pre-/postemergence herbicide test; format: in vivo, Setaria faberi
Method in brief: as §3

Surinam grass = assay: Test B pre-/postemergence herbicide test; format: in vivo, Urochloa decumbens
Method in brief: as §3

large crabgrass [9] = assay: Test B pre-/postemergence herbicide test; format: in vivo, Digitaria sanguinalis
Method in brief: as §3

barnyardgrass [10] = assay: Test B pre-/postemergence herbicide test; format: in vivo, Echinochloa crus-galli
Method in brief: as §1

barnyardgrass [11] = assay: Test B flooded paddy test; format: in vivo, Echinochloa crus-galli; conditions: 1000 g ai/ha, visual rating, scale 0 to 100 (0 no effect, 100 complete control), 13 to 15 days
Method in brief: as §5

cocklebur = assay: Test B pre-/postemergence herbicide test; format: in vivo, Xanthium strumarium
Method in brief: as §1

ducksalad = assay: Test B flooded paddy test; format: in vivo, Heteranthera limosa; conditions: 1000 g ai/ha, visual rating, scale 0 to 100 (0 no effect, 100 complete control), 13 to 15 days
Method in brief: as §5

velvetleaf [12] = assay: Test A pre-/postemergence herbicide test; format: in vivo, Abutilon theophrasti
Method in brief: as §2

lambsquarters = assay: Test B pre-/postemergence herbicide test; format: in vivo, Chenopodium album
Method in brief: as §3

[13] = system: small flower umbrella sedge; assay: Test B flooded paddy test; format: in vivo, Cyperus difformis; conditions: 1000 g ai/ha, visual rating, scale 0 to 100 (0 no effect, 100 complete control), 13 to 15 days
Method in brief: as §5

wheat = assay: Test B postemergence herbicide test; format: in vivo, Triticum aestivum; design: key to Wheat plant response rating: 0 = no effect, 100 = complete control; conditions: scale 0 (no effect) to 100 (complete control)
Method in brief: as §4

morningglory [14] = assay: Test A pre-/postemergence herbicide test; format: in vivo, Ipomoea spp.
Method in brief: as §2

[15] = Postemergence, 500 g ai/ha, 0 to 100 scale, 0 no effect, 100 complete control
[16] = Postemergence, 2000 g ai/ha, 0 to 100 scale, 0 no effect, 100 complete control
[17] = Preemergence, 500 g ai/ha, visual rating, 0 to 100 scale (0 no effect, 100 complete control)
[18] = Preemergence, 2000 g ai/ha, 0 to 100 scale, 0 no effect, 100 complete control
[19] = 500 g ai/ha, visual rating 0-100, 0 no effect, 100 complete control, preemergence
[20] = Postemergence, 500 g ai/ha, visual rating after 13 to 15 days, scale 0 (no effect) to 100 (complete control)
[21] = postemergence, 125 g ai/ha, visual rating, scale 0 (no effect) to 100 (complete control)
[22] = preemergence, 125 g ai/ha, 0 to 100 scale, 0 is no effect, 100 is complete control
[23] = Postemergence, 500 g ai/ha, visual rating after 13 to 15 days
[24] = postemergence, 125 g ai/ha, visual rating

With `CCn1nc(C(C)(C)C)cc1C(=O)Nc1cccc(C(=O)OC(C)C)c1C` [Compound 92] the “Plant response rating, Rice” value (rice [1]; 500 g ai/ha, visual rating 0-100, 0 no effect, 100 complete control) was 0, the “Plant response rating, Rice” value (rice [1]; 125 g ai/ha, 0 to 100 scale, 0 is no effect, 100 is complete control) was 0 and the “Crabgrass, Large plant response rating” value (large crabgrass [2]; [15]) was 0. For the same compound, the “Plant response rating, Crabgrass, Large” value (large crabgrass [2]; [16]) was 10, the “Crabgrass, Large plant response rating” value (large crabgrass [2]; [17]) was 0 and the “Crabgrass, Large plant response rating” value (large crabgrass [2]; [18]) was 0. For the same compound, the “Plant response rating, Pigweed” value (pigweed; [19]) was 0, the “Plant response rating, Pigweed” value (pigweed; [20]) was 10 and the “Pigweed plant response rating” value (pigweed; [21]) was 0. For the same compound, the “Plant response rating, Pigweed” value (pigweed; [22]) was 0, the “Plant response rating, Oat, Wild” value (wild oat; [23]) was 0 and the “Oat, Wild plant response rating” value (wild oat; [24]) was 0. The “Plant response rating, Corn” value (corn; [19]) was 0, the “Plant response rating, Corn” value (corn; [20]) was 10 and the “Corn plant response rating” value (corn; [21]) was 10. For the same compound, the “Plant response rating, Corn” value (corn; [22]) was 0, the “Barnyardgrass plant response rating” value (barnyardgrass [3]; [15]) was 0 and the “Plant response rating, Barnyardgrass” value (barnyardgrass [3]; [16]) was 0. The “Barnyardgrass plant response rating” value (barnyardgrass [3]; [17]) was 0, the “Barnyardgrass plant response rating” value (barnyardgrass [3]; [18]) was 0 and the “Plant response rating, Morningglory” value (morningglory [4]; [19]) was 0. The “Plant response rating, Morningglory” value (morningglory [4]; [20]) was 0, the “Morningglory plant response rating” value (morningglory [4]; [21]) was 0 and the “Plant response rating, Morningglory” value (morningglory [4]; [22]) was 0. The “Plant response rating, Blackgrass” value (blackgrass; [23]) was 0, the “Blackgrass plant response rating” value (blackgrass; [24]) was 0 and the “Pigweed plant response rating” value (redroot pigweed; [15]) was 0. The “Plant response rating, Pigweed” value (redroot pigweed; [16]) was 0, the “Pigweed plant response rating” value (redroot pigweed; [17]) was 0 and the “Pigweed plant response rating” value (redroot pigweed; [18]) was 35. The “Plant response rating, Velvetleaf” value (velvetleaf [5]; [19]) was 0, the “Plant response rating, Velvetleaf” value (velvetleaf [5]; [20]) was 0 and the “Velvetleaf plant response rating” value (velvetleaf [5]; [21]) was 0. The “Plant response rating, Velvetleaf” value (velvetleaf [5]; [22]) was 0, the “Rice plant response rating” value (rice [6]) was 0 and the “Foxtail, Giant plant response rating” value (giant foxtail [7]; [15]) was 0. The “Plant response rating, Foxtail, Giant” value (giant foxtail [7]; [16]) was 0, the “Foxtail, Giant plant response rating” value (giant foxtail [7]; [17]) was 0 and the “Foxtail, Giant plant response rating” value (giant foxtail [7]; [18]) was 0. The “Plant response rating, Foxtail, Giant” value (giant foxtail [8]; [19]) was 10, the “Plant response rating, Foxtail, Giant” value (giant foxtail [8]; [20]) was 0 and the “Foxtail, Giant plant response rating” value (giant foxtail [8]; [21]) was 0. For the same compound, the “Plant response rating, Foxtail, Giant” value (giant foxtail [8]; [22]) was 0, the “Plant response rating, Surinam Grass” value (Surinam grass; [19]) was 0 and the “Plant response rating, Surinam Grass” value (Surinam grass; [20]) was 10. For the same compound, the “Surinam Grass plant response rating” value (Surinam grass; [21]) was 0, the “Plant response rating, Surinam Grass” value (Surinam grass; [22]) was 0 and the “Plant response rating, Crabgrass, Large” value (large crabgrass [9]; [19]) was 10. The “Plant response rating, Crabgrass, Large” value (large crabgrass [9]; [20]) was 10, the “Crabgrass, Large plant response rating” value (large crabgrass [9]; [21]) was 0 and the “Plant response rating, Crabgrass, Large” value (large crabgrass [9]; [22]) was 0. For the same compound, the “Plant response rating, Barnyardgrass” value (barnyardgrass [10]; [19]) was 0, the “Plant response rating, Barnyardgrass” value (barnyardgrass [10]; [20]) was 0 and the “Barnyardgrass plant response rating” value (barnyardgrass [10]; [21]) was 0. The “Plant response rating, Barnyardgrass” value (barnyardgrass [10]; [22]) was 0, the “Barnyardgrass plant response rating” value (barnyardgrass [11]) was 0 and the “Plant response rating, Cocklebur” value (cocklebur; [19]) was 0. For the same compound, the “Plant response rating, Cocklebur” value (cocklebur; [20]) was 0, the “Cocklebur plant response rating” value (cocklebur; [21]) was 0 and the “Plant response rating, Cocklebur” value (cocklebur; [22]) was 0. The “Ducksalad plant response rating” value (ducksalad) was 0, the “Velvetleaf plant response rating” value (velvetleaf [12]; [15]) was 0 and the “Plant response rating, Velvetleaf” value (velvetleaf [12]; [16]) was 0. The “Velvetleaf plant response rating” value (velvetleaf [12]; [17]) was 0, the “Velvetleaf plant response rating” value (velvetleaf [12]; Preemergence, 2000 g ai/ha, visual rating, 0 to 100 scale (0 no effect, 100 complete control)) was 0 and the “Plant response rating, Lambsquarters” value (lambsquarters; [19]) was 0. The “Plant response rating, Lambsquarters” value (lambsquarters; [20]) was 20, the “Lambsquarters plant response rating” value (lambsquarters; [21]) was 20 and the “Plant response rating, Lambsquarters” value (lambsquarters; [22]) was 0. For the same compound, the “Sedge, Umbrella plant response rating” value [13] was 0, the “Plant response rating, Wheat” value (wheat; [23]) was 0 and the “Wheat plant response rating” value (wheat; [24]) was 0. The “Morningglory plant response rating” value (morningglory [14]; [15]) was 0, the “Plant response rating, Morningglory” value (morningglory [14]; [16]) was 0 and the “Morningglory plant response rating” value (morningglory [14]; [17]) was 0. For the same compound, the “Morningglory plant response rating” value (morningglory [14]; [18]) was 0.
